Data taken from PubChem BioAssay (NCI).
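Where inhibition never reached the appropriate level, the endpoint shown equals the highest concentration tested. Otherwise, values were interpolated linearly from a five-concentration, 48-hour dose response in 96-well plates. TGI is the concentration that stops growth completely.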

What was measured:
Experiment in all cases: inhibition of tumour cell growth, NCI panel, 48 h
[1] = test system: A498 renal
[2] = test system: A549 NSCLC
[3] = test system: ACHN renal
[4] = test system: EKVX NSCLC
[5] = test system: HCT-15 colon
[6] = test system: HOP-92 NSCLC
[7] = test system: IGROV1 ovarian
[8] = test system: KM12 colon
[9] = test system: MDA-MB-435
[10] = test system: MOLT-4 leukemia
[11] = test system: NCI-H460 lung
[12] = test system: NCI-H522 lung
[13] = test system: NCI/ADR-RES ovarian
[14] = test system: OVCAR-4 ovarian
[15] = test system: RPMI-8226 leukemia
[16] = test system: RXF 393 renal
[17] = test system: SW-620 colon
[18] = test system: UO-31 renal
[19] = test system: HS 578T breast
[20] = test system: LOX IMVI melanoma

Compound	TGI [1]	TGI [2]	TGI [3]	TGI [4]	TGI [5]	TGI [6]	TGI [7]	TGI [8]	TGI [9]	TGI [10]	TGI [11]	TGI [12]	TGI [13]	TGI [14]	TGI [15]	TGI [16]	TGI [17]	TGI [18]	TGI [19]	TGI [20]
O=c1c2cc(-c3ccccc3)cnc2sn1-c1ccc(Oc2ccccc2)cc1	78.6 µM	53.2 µM	> 100 µM	> 100 µM	> 100 µM	> 100 µM	> 100 µM	> 100 µM	> 100 µM	> 100 µM	> 100 µM	> 100 µM	80.1 µM	51.9 µM	> 100 µM	44.6 µM	> 100 µM	> 100 µM	–	–
COc1cc([C@@H]2c3cc4c(cc3[C@@H](OC3OC5COC(C)OC5C(OC(=O)CN5CCN(C)CC5)C3OC(=O)CN3CCN(C)CC3)C3COC(=O)[C@@H]32)OCO4)cc(OC)c1OC(=O)CN1CCN(C)CC1 (some centres not stated)	–	–	> 100 µM	> 100 µM	> 100 µM	> 100 µM	> 100 µM	> 100 µM	> 100 µM	42.1 µM	> 100 µM	> 100 µM	> 100 µM	> 100 µM	–	> 100 µM	> 100 µM	> 100 µM	> 100 µM	> 100 µM
CCCC(=O)NC(C(=O)OCC)(N1CCOCC1)C(F)(F)F (configuration not stated)	–	> 100 µM	> 100 µM	> 100 µM	> 100 µM	> 100 µM	> 100 µM	> 100 µM	> 100 µM	> 100 µM	–	> 100 µM	> 100 µM	> 100 µM	> 100 µM	> 100 µM	> 100 µM	> 100 µM	> 100 µM	> 100 µM
CCOC(=O)c1c(-c2ccccc2)nc2c(OC)nccn12	–	> 100 µM	–	> 100 µM	> 100 µM	–	> 100 µM	> 100 µM	> 100 µM	> 100 µM	> 100 µM	> 100 µM	> 100 µM	> 100 µM	> 100 µM	80.9 µM	> 100 µM	> 100 µM	> 100 µM	> 100 µM
COc1ccc2nc3cc([N+](=O)[O-])ccc3c(Nc3ccc(S(=O)(=O)N=C(N)N)cc3)c2c1	> 100 µM	> 100 µM	> 100 µM	> 100 µM	> 100 µM	77.8 µM	–	57.5 µM	> 100 µM	14.7 µM	25 µM	41.3 µM	–	> 100 µM	42.6 µM	> 100 µM	> 100 µM	> 100 µM	> 100 µM	> 100 µM
NC(=O)NC1=NC(Cc2ccccc2)C(=O)N1Cc1ccccc1 (configuration not stated)	–	> 100 µM	> 100 µM	> 100 µM	> 100 µM	–	> 100 µM	> 100 µM	–	> 100 µM	> 100 µM	–	–	> 100 µM	> 100 µM	> 100 µM	> 100 µM	> 100 µM	–	> 100 µM
CCOC1(OCC)N=C(N)C2(C#N)C3(C(=O)N(C(C)C)N=C3C)C12C#N (configuration not stated)	> 100 µM	> 100 µM	> 100 µM	> 100 µM	> 100 µM	> 100 µM	> 100 µM	> 100 µM	> 100 µM	> 100 µM	> 100 µM	> 100 µM	> 100 µM	> 100 µM	> 100 µM	> 100 µM	> 100 µM	> 100 µM	–	–
O=Nc1sc(=N\O)/c(=N/O)sc1NO	> 100 µM	> 100 µM	> 100 µM	> 100 µM	> 100 µM	> 100 µM	> 100 µM	> 100 µM	> 100 µM	> 100 µM	> 100 µM	> 100 µM	> 100 µM	> 100 µM	> 100 µM	> 100 µM	> 100 µM	> 100 µM	–	> 100 µM
COCCN(CCOC)C(=O)COc1c2cc(C(C)(C)C)cc1Cc1cc(C(C)(C)C)cc(c1OCC(=O)N(CCOC)CCOC)Cc1cc(C(C)(C)C)cc(c1OCC(=O)N(CCOC)CCOC)Cc1cc(C(C)(C)C)cc(c1OCC(=O)N(CCOC)CCOC)Cc1cc(C(C)(C)C)cc(c1OCC(=O)N(CCOC)CCOC)C2	9.53 µM	11.3 µM	12.6 µM	2.8 µM	11.8 µM	–	10.1 µM	11.1 µM	10.7 µM	–	5.86 µM	6.9 µM	33 µM	17.5 µM	–	4.03 µM	11.9 µM	–	–	8.92 µM
Cc1sc(Nc2ccccc2[N+](=O)[O-])c(C#N)c1C	> 100 µM	> 100 µM	> 100 µM	> 100 µM	> 100 µM	53 µM	–	> 100 µM	> 100 µM	> 100 µM	> 100 µM	20.9 µM	96.6 µM	> 100 µM	> 100 µM	57.1 µM	–	> 100 µM	–	–
CN(C)C1(N(C)C)Oc2c(c(=O)n(C)c(=O)n2C)C(c2ccccc2Br)C1(F)F (configuration not stated)	> 100 µM	> 100 µM	> 100 µM	> 100 µM	> 100 µM	> 100 µM	–	> 100 µM	> 100 µM	> 100 µM	> 100 µM	–	> 100 µM	> 100 µM	> 100 µM	> 100 µM	> 100 µM	> 100 µM	–	> 100 µM
O=C1C2=Cc3ccccc3OC2(O)Oc2ccc(O)cc21 (configuration not stated)	> 100 µM	> 100 µM	29.6 µM	> 100 µM	> 100 µM	> 100 µM	> 100 µM	> 100 µM	> 100 µM	> 100 µM	–	–	> 100 µM	–	> 100 µM	> 100 µM	> 100 µM	–	–	> 100 µM
Cc1cc(O)c(C=NC(=S)c2ccccc2)c(=O)o1	–	> 100 µM	> 100 µM	> 100 µM	> 100 µM	> 100 µM	> 100 µM	> 100 µM	> 100 µM	> 100 µM	> 100 µM	–	> 100 µM	> 100 µM	–	–	> 100 µM	> 100 µM	–	> 100 µM
C(=NCCCN1CCN(CCCN=Cc2cccc3ccccc23)CC1)c1cccc2ccccc12	–	> 100 µM	> 100 µM	> 100 µM	> 100 µM	–	> 100 µM	> 100 µM	96.8 µM	> 100 µM	> 100 µM	> 100 µM	> 100 µM	> 100 µM	> 100 µM	78.2 µM	> 100 µM	> 100 µM	> 100 µM	> 100 µM
C/C(=N\Nc1nc2ccccc2s1)c1cnccn1	–	> 65.5 µM	21.1 µM	5 µM	18.2 µM	> 28.3 µM	7.28 µM	15.2 µM	> 100 µM	–	15 µM	2.92 µM	4.88 µM	> 100 µM	> 47.8 µM	40.7 µM	> 100 µM	23.6 µM	20 µM	–
O=C1C(=c2cc3c(c4ccccc24)=NC24CCCCC2C(c2ccccc2)C=C(c2ccccc2)N34)C(=O)c2ccccc21 (configuration not stated)	> 100 µM	> 100 µM	> 100 µM	> 100 µM	–	> 100 µM	> 100 µM	> 100 µM	70.8 µM	64.7 µM	–	47.5 µM	–	68.3 µM	53.8 µM	49 µM	> 100 µM	> 100 µM	> 100 µM	> 100 µM
CC(C)[Si](OC1=C(C(=O)N(C)c2ccccc2Cl)CCCCC1)(C(C)C)C(C)C	> 100 µM	> 100 µM	> 100 µM	> 100 µM	> 100 µM	> 100 µM	> 100 µM	> 100 µM	> 100 µM	> 100 µM	> 100 µM	> 100 µM	> 100 µM	> 100 µM	> 100 µM	> 100 µM	> 100 µM	> 100 µM	–	> 100 µM
Cn1c(=O)n2c(-c3ccccc3)c(-c3ccccc3)n2c1=O	> 100 µM	> 100 µM	> 100 µM	> 100 µM	> 100 µM	> 100 µM	> 100 µM	> 100 µM	–	> 100 µM	> 100 µM	–	> 100 µM	> 100 µM	–	> 100 µM	> 100 µM	> 100 µM	> 100 µM	> 100 µM
NC(=O)CCC(CCC(N)=O)(CCC(N)=O)[N+](=O)[O-]	–	> 100 µM	> 100 µM	> 100 µM	> 100 µM	> 100 µM	> 100 µM	> 100 µM	> 100 µM	> 100 µM	> 100 µM	> 100 µM	> 100 µM	–	> 100 µM	> 100 µM	> 100 µM	> 100 µM	> 100 µM	–
O=P(c1ccccc1)(c1ccccc1)c1ccc2c(c1)OCCOCCOCCOCCO2	> 100 µM	> 100 µM	> 100 µM	> 100 µM	> 100 µM	–	> 100 µM	> 100 µM	> 100 µM	> 100 µM	> 100 µM	> 100 µM	–	–	> 100 µM	–	> 100 µM	> 100 µM	> 100 µM	> 100 µM
CCOC(=O)N/N=C(\Cc1ccc([N+](=O)[O-])cc1)OCC	–	> 100 µM	> 100 µM	> 100 µM	> 100 µM	> 100 µM	> 100 µM	> 100 µM	> 100 µM	> 100 µM	–	> 100 µM	> 100 µM	> 100 µM	> 100 µM	> 100 µM	> 100 µM	> 100 µM	–	> 100 µM
CC1C2(C)OC(=N)C(C#N)(C(C)O2)C1(C#N)C#N (configuration not stated)	> 100 µM	> 100 µM	> 100 µM	> 100 µM	28.8 µM	37.6 µM	> 100 µM	> 100 µM	–	> 100 µM	42.8 µM	–	> 100 µM	–	–	35.7 µM	43 µM	> 100 µM	> 100 µM	41.4 µM
COC(=O)c1ccc(COC(=O)N2C=CCC2C(=O)O)cc1 (configuration not stated)	–	> 100 µM	> 100 µM	–	> 100 µM	> 100 µM	> 100 µM	> 100 µM	> 100 µM	> 100 µM	> 100 µM	> 100 µM	> 100 µM	–	> 100 µM	> 100 µM	> 100 µM	> 100 µM	> 100 µM	–
CN(C)CCNC1=CC(=O)c2nc3ccccc3c3ccnc1c23	–	26.3 µM	15 µM	14.3 µM	20.3 µM	60.9 µM	14.8 µM	17.4 µM	20 µM	13.6 µM	9.91 µM	16.2 µM	28.5 µM	16.6 µM	55.5 µM	–	18 µM	23.8 µM	24.5 µM	5.94 µM
CC(=O)O[C@H]1CC[C@@]2(C)C(=C[C@H](c3ccc(O)cc3)[C@H]3[C@@H]4CC[C@H](OC(C)=O)[C@@]4(C)CC[C@@H]32)C1	57.8 µM	40.5 µM	80.6 µM	37.4 µM	24.8 µM	81.5 µM	–	31 µM	62.6 µM	45.3 µM	40.6 µM	–	31.9 µM	41 µM	45.8 µM	51.1 µM	46.2 µM	76.4 µM	–	27.1 µM
CCC(CCN)(CCN)[N+](=O)[O-]	–	> 100 µM	–	> 100 µM	> 100 µM	> 100 µM	> 100 µM	> 100 µM	> 100 µM	> 100 µM	> 100 µM	> 100 µM	> 100 µM	–	> 100 µM	> 100 µM	> 100 µM	–	> 100 µM	–
